Test results from ChEMBL document CHEMBL1201862, “PubChem BioAssay data set” (2004).
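Briefly, cells in 96-well plates were exposed to five compound concentrations for 48 h, and endpoints were estimated by linear interpolation. Abbreviation: GI50, concentration required for 50% inhibition of growth.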 Activity calls are given as the source filed them. No stated cut-off is given here; in the data, active = GI50 up to about 1.1 µM and inactive = higher.

Key:
Test in all cases: NCI anticancer screen, dose series, 48 h
RPMI-8226 = test system: RPMI-8226
K562 = test system: K562
NCI-H23 = test system: NCI-H23
Malme-3M = test system: Malme-3M
SF-295 = test system: SF-295
SN12C = test system: SN12C
SK-OV-3 = test system: SK-OV-3
OVCAR-8 = test system: OVCAR-8
IGROV-1 = test system: IGROV-1
786-0 = test system: 786-0
SK-MEL-28 = test system: SK-MEL-28
NCI-H226 = test system: NCI-H226
OVCAR-3 = test system: OVCAR-3
SW-620 = test system: SW-620
A498 = test system: A498
RXF 393 = test system: RXF 393
OVCAR-5 = test system: OVCAR-5
PC-3 = test system: PC-3
MCF7 = test system: MCF7

Measured: GI50

c1cnc2c3[nH]cc4[nH]c5ccccc5c4c-3nc2c1
inactive: RPMI-8226 27.6 µM | K562 36.5 µM | NCI-H23 > 100 µM | Malme-3M 28.4 µM | SF-295 47.9 µM | SN12C > 100 µM | SK-OV-3 > 100 µM | OVCAR-8 45.1 µM | IGROV-1 > 100 µM | 786-0 44.4 µM | SK-MEL-28 50.5 µM | NCI-H226 48.3 µM | OVCAR-3 53 µM | SW-620 55.2 µM | A498 > 100 µM | RXF 393 93.3 µM | OVCAR-5 > 100 µM

COc1ccc(CN2CCC/C=C/CC(Cl)(Cl)C2=O)cc1
inactive: RPMI-8226 24.3 µM | K562 35.6 µM | NCI-H23 27.2 µM | Malme-3M 23.8 µM | SF-295 20.5 µM | SN12C 37.9 µM | SK-OV-3 27.9 µM | OVCAR-8 40 µM | IGROV-1 38.4 µM | 786-0 35.8 µM | SK-MEL-28 46.7 µM | OVCAR-3 34.8 µM | SW-620 49.4 µM | A498 19.2 µM | RXF 393 17 µM | OVCAR-5 42.7 µM

N#Cc1nc(-c2ccccn2)oc1N
inactive: RPMI-8226 > 100 µM | K562 > 100 µM | NCI-H23 > 100 µM | Malme-3M > 100 µM | SF-295 > 100 µM | SN12C > 100 µM | SK-OV-3 > 100 µM | PC-3 > 100 µM | IGROV-1 > 100 µM | 786-0 > 100 µM | SK-MEL-28 > 100 µM | NCI-H226 > 100 µM | OVCAR-3 > 100 µM | SW-620 > 100 µM | MCF7 > 100 µM | A498 > 100 µM | RXF 393 > 100 µM | OVCAR-5 > 100 µM

C=CSCCC(N)C(=O)O (stereo not given)
inactive: K562 > 100 µM | NCI-H23 > 100 µM | Malme-3M > 100 µM | SF-295 > 100 µM | SN12C > 100 µM | OVCAR-8 > 100 µM | IGROV-1 > 100 µM | 786-0 > 100 µM | SK-MEL-28 > 100 µM | NCI-H226 > 100 µM | OVCAR-3 > 100 µM | SW-620 > 100 µM | A498 > 100 µM | RXF 393 > 100 µM | OVCAR-5 > 100 µM

Cc1cc(Cl)ccc1NC(=O)C(=O)Cc1nc2ccccc2o1
inactive: RPMI-8226 > 100 µM | K562 > 100 µM | NCI-H23 > 100 µM | Malme-3M > 100 µM | SF-295 > 100 µM | SN12C > 100 µM | SK-OV-3 > 100 µM | OVCAR-8 > 100 µM | IGROV-1 > 100 µM | 786-0 > 100 µM | SK-MEL-28 > 100 µM | OVCAR-3 > 100 µM | SW-620 > 100 µM | A498 > 100 µM | RXF 393 > 100 µM | OVCAR-5 > 100 µM

COc1ccc2c(c1)OC[C@@H]1c3cc4c(cc3O[C@H]21)OCO4
inactive: RPMI-8226 > 100 µM | K562 > 100 µM | NCI-H23 > 100 µM | Malme-3M > 100 µM | SF-295 > 100 µM | SK-OV-3 > 100 µM | OVCAR-8 > 100 µM | 786-0 > 100 µM | SK-MEL-28 > 100 µM | NCI-H226 > 100 µM | OVCAR-3 > 100 µM | SW-620 > 100 µM | A498 > 100 µM | RXF 393 > 100 µM | OVCAR-5 > 100 µM

Nc1nc(S)nc(C(=O)Nc2nccs2)c1-c1ccccc1
inactive: RPMI-8226 > 100 µM | K562 > 100 µM | NCI-H23 > 100 µM | Malme-3M > 100 µM | SF-295 > 100 µM | SN12C > 100 µM | SK-OV-3 > 100 µM | OVCAR-8 > 100 µM | IGROV-1 > 100 µM | 786-0 > 100 µM | SK-MEL-28 > 100 µM | NCI-H226 > 100 µM | OVCAR-3 > 100 µM | SW-620 > 100 µM | A498 > 100 µM | RXF 393 > 100 µM | OVCAR-5 > 100 µM

O=C1/C(=N\O)C2CCC1C2 (stereo not given)
inactive: RPMI-8226 > 100 µM | K562 > 100 µM | NCI-H23 > 100 µM | Malme-3M > 100 µM | SF-295 > 100 µM | SN12C > 100 µM | SK-OV-3 > 100 µM | OVCAR-8 > 100 µM | IGROV-1 > 100 µM | 786-0 > 100 µM | SK-MEL-28 > 100 µM | NCI-H226 > 100 µM | OVCAR-3 > 100 µM | SW-620 > 100 µM | A498 > 100 µM | RXF 393 > 100 µM | OVCAR-5 > 100 µM

CS(=O)(=O)OCCCOS(C)(=O)=O
inactive: RPMI-8226 > 100 µM | K562 > 100 µM | NCI-H23 > 100 µM | Malme-3M > 100 µM | SF-295 > 100 µM | SN12C > 100 µM | SK-OV-3 > 100 µM | OVCAR-8 > 100 µM | IGROV-1 > 100 µM | 786-0 > 100 µM | SK-MEL-28 > 100 µM | NCI-H226 > 100 µM | OVCAR-3 > 100 µM | SW-620 > 100 µM | A498 > 100 µM | RXF 393 > 100 µM | OVCAR-5 > 100 µM

CC(=O)Nc1ccc(S(=O)(=O)N/N=C/c2cc(I)cc([N+](=O)[O-])c2O)cc1
inactive: RPMI-8226 36.6 µM | K562 57.3 µM | NCI-H23 29.5 µM | Malme-3M 46.3 µM | SF-295 > 100 µM | SN12C 64.3 µM | SK-OV-3 85.3 µM | OVCAR-8 > 100 µM | IGROV-1 > 100 µM | 786-0 > 100 µM | SK-MEL-28 25.2 µM | NCI-H226 62.4 µM | OVCAR-3 > 100 µM | SW-620 > 100 µM | A498 > 100 µM | RXF 393 21.5 µM | OVCAR-5 > 100 µM

COc1ccc2c(C)cc(=O)oc2c1OC
inactive: RPMI-8226 > 100 µM | K562 > 100 µM | NCI-H23 > 100 µM | Malme-3M > 100 µM | SF-295 > 100 µM | SN12C > 100 µM | SK-OV-3 > 100 µM | OVCAR-8 > 100 µM | PC-3 > 100 µM | IGROV-1 > 100 µM | 786-0 > 100 µM | SK-MEL-28 > 100 µM | NCI-H226 > 100 µM | OVCAR-3 > 100 µM | SW-620 > 100 µM | MCF7 > 100 µM | A498 > 100 µM | OVCAR-5 > 100 µM

CCOC(=O)c1sc2c(C(=O)OCC)n3ccccc3c2c1N
inactive: RPMI-8226 > 100 µM | K562 > 100 µM | NCI-H23 43.6 µM | Malme-3M > 100 µM | SF-295 44.6 µM | SN12C 96.8 µM | SK-OV-3 38 µM | OVCAR-8 61.9 µM | IGROV-1 > 100 µM | 786-0 36.2 µM | SK-MEL-28 > 100 µM | NCI-H226 > 10 µM | OVCAR-3 > 100 µM | SW-620 > 100 µM | A498 71.9 µM | RXF 393 20.2 µM | OVCAR-5 > 100 µM

Cc1ccc(S(=O)(=O)N/N=C/C(C)C)cc1
inactive: RPMI-8226 > 100 µM | K562 > 100 µM | NCI-H23 > 100 µM | Malme-3M > 100 µM | SF-295 > 100 µM | SN12C > 100 µM | SK-OV-3 > 100 µM | OVCAR-8 > 100 µM | IGROV-1 > 100 µM | 786-0 > 100 µM | OVCAR-3 > 100 µM | SW-620 > 100 µM | A498 > 100 µM | RXF 393 > 100 µM | OVCAR-5 > 100 µM

COc1cc2c(c(OC)c1OC)CCNC2C1=C(O)COC1=O (stereo not given)
inactive: RPMI-8226 88.3 µM | K562 > 100 µM | Malme-3M > 100 µM | SF-295 > 100 µM | SN12C > 100 µM | SK-OV-3 > 100 µM | OVCAR-8 > 100 µM | IGROV-1 > 100 µM | 786-0 > 100 µM | NCI-H226 28.9 µM | SW-620 > 100 µM | A498 > 100 µM | RXF 393 > 100 µM | OVCAR-5 > 100 µM

COc1cc2c(oc(=O)c3c4oc([Si](C)(C)C)cc4cc(OC)c23)c2cccc(OCc3ccccc3)c12
inactive: RPMI-8226 28.4 µM | K562 57 µM | NCI-H23 16.3 µM | Malme-3M 32.1 µM | SF-295 19 µM | SN12C > 100 µM | SK-OV-3 38.3 µM | OVCAR-8 38.5 µM | IGROV-1 50.5 µM | 786-0 19.1 µM | SK-MEL-28 38.3 µM | NCI-H226 42.5 µM | OVCAR-3 34.8 µM | SW-620 68.9 µM | A498 31.4 µM | RXF 393 > 33.5 µM | OVCAR-5 > 70.3 µM

C/C(=C\CC[C@]1(C)OC(C)(C)OC1CC/C(C)=C/CO[Si](c1ccccc1)(c1ccccc1)C(C)(C)C)CC/C=C/CO[Si](C)(C)C(C)(C)C (stereo not given in full)
inactive: RPMI-8226 > 100 µM | K562 > 100 µM | NCI-H23 > 100 µM | Malme-3M > 100 µM | SF-295 > 100 µM | SN12C > 100 µM | SK-OV-3 > 100 µM | OVCAR-8 > 100 µM | IGROV-1 > 100 µM | 786-0 > 100 µM | SK-MEL-28 > 100 µM | NCI-H226 > 100 µM | OVCAR-3 74.5 µM | SW-620 > 100 µM | A498 > 100 µM | RXF 393 > 100 µM | OVCAR-5 > 100 µM

CS(=O)(=O)OCCN1CCN(C(=O)c2cccc3c(Nc4ccc(S(N)(=O)=O)cc4)c4ccccc4nc23)CC1
inactive: RPMI-8226 > 46.5 µM | K562 > 51.5 µM | NCI-H23 > 100 µM | Malme-3M > 100 µM | SF-295 > 100 µM | SN12C > 100 µM | SK-OV-3 > 100 µM | OVCAR-8 > 100 µM | IGROV-1 > 100 µM | 786-0 > 100 µM | SK-MEL-28 > 100 µM | NCI-H226 > 100 µM | OVCAR-3 > 100 µM | SW-620 > 39.3 µM | A498 > 100 µM | RXF 393 > 55.2 µM | OVCAR-5 > 100 µM
